Reference: ChEMBL document CHEMBL1150051, “Antiviral (RNA) activity of selected Amaryllidaceae isoquinoline constituents and synthesis of related substances” (J Nat Prod, 1992)
Values after ≈ are worked out from the molar mass of the structure shown. Active and inactive are the calls of the source. The calls are words filed in the database; no cut-off is given here.

Tests used:
Mus musculus [1] = assay: Toxicity in C57BL/6 mouse assessed as body weight loss at 40 mg/kg/day, sc once daily for 7 days; assay type: organism-based; design: route subcutaneous; conditions: in vivo, 168 h
[2] = test system: Japanese encephalitis virus; assay: Antiviral activity against Japanese encephalitis virus Beijing infected in low viral dose challenge C57BL/6 mouse model assessed as average day of death at 40 mg/kg/day, sc once daily for 7 days administered 1 day before infection measured after 28 days post infection; assay type: functional; conditions: route subcutaneous
[3] = test system: Japanese encephalitis virus; assay: Antiviral activity against Japanese encephalitis virus Beijing infected in low viral dose challenge C57BL/6 mouse model assessed as average day of death at 20 mg/kg/day, sc once daily for 7 days administered 1 day before infection measured after 28 days post infection; assay type: functional; conditions: route subcutaneous
[4] = test system: Japanese encephalitis virus; assay: Antiviral activity against Japanese encephalitis virus Beijing infected in low viral dose challenge C57BL/6 mouse model assessed as average day of death at 10 mg/kg/day, sc once daily for 7 days administered 1 day before infection measured after 28 days post infection; assay type: functional; conditions: route subcutaneous
[5] = test system: Japanese encephalitis virus; assay: Antiviral activity against Japanese encephalitis virus Beijing infected in low viral dose challenge C57BL/6 mouse model assessed as survival rate at 40 mg/kg/day, sc once daily for 7 days administered 1 day before infection measured after 28 days post infection relative to control; assay type: functional; conditions: route subcutaneous
[6] = test system: Japanese encephalitis virus; assay: Antiviral activity against Japanese encephalitis virus Beijing infected in low viral dose challenge C57BL/6 mouse model assessed as survival rate at 20 mg/kg/day, sc once daily for 7 days administered 1 day before infection measured after 28 days post infection relative to control; assay type: functional; conditions: route subcutaneous
[7] = test system: Japanese encephalitis virus; assay: Antiviral activity against Japanese encephalitis virus Beijing infected in low viral dose challenge C57BL/6 mouse model assessed as survival rate at 10 mg/kg/day, sc once daily for 7 days administered 1 day before infection measured after 28 days post infection relative to control; assay type: functional, organism-based
[8] = test system: Japanese encephalitis virus; assay: Antiviral activity against Japanese encephalitis virus Nakayama infected in african green monkey Vero cells assessed as inhibition of virus-induced cytopathic effect by MTT assay; assay type: functional, organism-based; conditions: Japanese encephalitis virus, Nakayama, Vero; read-out: IC50
[9] = Therapeutic index, ratio of TC50 for african green monkey Vero cells to IC50 for Japanese encephalitis virus Nakayama; assay type: cell-based; conditions: read-out: TI
Yellow fever virus = assay: Antiviral activity against Yellow fever virus Ashibi infected in african green monkey Vero cells assessed as inhibition of virus-induced cytopathic effect by MTT assay; assay type: functional, organism-based; conditions: Yellow fever virus, Ashibi, Vero; read-out: IC50
[10] = Therapeutic index, ratio of TC50 for african green monkey Vero cells to IC50 for Yellow fever virus Ashibi; assay type: cell-based; conditions: read-out: TI
dengue virus type 4 = assay: Antiviral activity against Dengue virus type 4 infected in african green monkey Vero cells after 6 days by plaque reduction assay; assay type: functional, organism-based; conditions: Dengue virus, Vero, 144 h; read-out: IC50
[11] = Therapeutic index, ratio of TC50 for african green monkey Vero cells to IC50 for Dengue type 4 virus; assay type: cell-based; conditions: read-out: TI
[12] = test system: Venezuelan equine encephalitis virus; assay: Antiviral activity against Venezuelan equine encephalitis virus Trinidad donkey infected in african green monkey Vero cells assessed as inhibition of virus-induced cytopathic effect by MTT assay; assay type: functional, organism-based
[13] = test system: Human immunodeficiency virus 1; assay: Antiviral activity against HIV1 by cells based assay; assay type: functional, organism-based
Vaccinia virus = assay: Antiviral activity against Vaccinia virus Lederle vaccine infected in african green monkey Vero cells assessed as inhibition of virus-induced cytopathic effect by MTT assay; assay type: functional, organism-based; conditions: Orthopoxvirus vaccinia
Punta Toro virus = assay: Antiviral activity against Punta Toro virus Adames infected in african green monkey Vero cells assessed as inhibition of virus-induced cytopathic effect by MTT assay; assay type: functional, organism-based; conditions: Punta Toro virus, Adames, Vero; read-out: IC50
[14] = Therapeutic index, ratio of TC50 for african green monkey Vero cells to IC50 for Punta toro virus Adames; assay type: cell-based; conditions: read-out: TI
Rift Valley fever virus = assay: Antiviral activity against Rift Valley fever virus infected in african green monkey Vero cells after 6 days by plaque reduction assay; assay type: functional, organism-based; conditions: Rift Valley fever virus, Vero, 144 h; read-out: IC50
[15] = Therapeutic index, ratio of TC50 for african green monkey Vero cells to IC50 for Rift valley fever virus; assay type: cell-based; conditions: read-out: TI
[16] = test system: Sandfly fever Sicilian virus; assay: Antiviral activity against Sandfly fever sicilian virus infected in african green monkey Vero cells assessed as inhibition of virus-induced cytopathic effect by MTT assay; assay type: functional, organism-based; conditions: sandfly fever Sicilian virus, Vero; read-out: IC50
[17] = Therapeutic index, ratio of TC50 for african green monkey Vero cells to IC50 for Sandfly fever sicilian virus; assay type: cell-based; conditions: read-out: TI
Mus musculus [18] = assay: Toxicity in C57BL/6 mouse assessed as average day of death at 2 mg/kg/day, sc once daily for 7 days; assay type: organism-based; design: route subcutaneous; conditions: in vivo, 168 h
Mus musculus [19] = assay: Toxicity in C57BL/6 mouse assessed as mortality at 40 mg/kg/day, sc once daily for 7 days; assay type: organism-based; design: route subcutaneous; conditions: in vivo, 168 h
Mus musculus [20] = assay: Toxicity in C57BL/6 mouse assessed as mortality at 20 mg/kg/day, sc once daily for 7 days; assay type: organism-based; design: route subcutaneous; conditions: in vivo, 168 h
Mus musculus [21] = assay: Toxicity in C57BL/6 mouse assessed as mortality at 10 mg/kg/day, sc once daily for 7 days; assay type: organism-based; design: route subcutaneous; conditions: in vivo, 168 h

For `O=C1N[C@H]2[C@H](O)[C@H](O)[C@@H](O)[C@H](O)[C@@H]2c2cc3c(cc21)OCO3`, the Activity (Mus musculus [1]) was “Toxic”, the Activity [2] was 9.5 days and the Activity [3] was 15 days. For the same compound, the Activity [4] was 13.6 days, the Activity [5] was 80% and the Activity [6] was 60%. For the same compound, the Activity [7] was “inactive”, the IC50 [8] was 0.48 µg/mL (≈ 1.55 µM) and the selectivity ratio [9] was 5.9. For the same compound, the IC50 (Yellow fever virus) was 0.4 µg/mL (≈ 1.29 µM), the selectivity ratio [10] was 6.6 and the IC50 (dengue virus type 4) was 0.67 µg/mL (≈ 2.17 µM). The selectivity ratio [11] was 3.7, the Activity [12] was “inactive” and the Activity [13] was “inactive”. The Activity (Vaccinia virus) was “inactive”, the IC50 (Punta Toro virus) was 0.66 µg/mL (≈ 2.13 µM) and the selectivity ratio [14] was 4.3. For the same compound, the IC50 (Rift Valley fever virus) was 5.1 µg/mL (≈ 16.5 µM), the selectivity ratio [15] was 4.3 and the IC50 [16] was 1.7 µg/mL (≈ 5.5 µM). The selectivity ratio [17] was 2.7, the Activity (Mus musculus [18]) was 28 days and the Activity (Mus musculus [19]) was “Non-toxic”. The Activity (Mus musculus [20]) was “Non-toxic” and the Activity (Mus musculus [21]) was “Non-toxic”.
